Laboratory results from BigSolDB 2.1.

Nc1cnc(Cl)cn1
solubility (mole fraction)
Details	278.15 K	283.15 K	288.15 K	293.15 K	298.15 K	303.15 K	308.15 K	313.15 K	318.15 K	323.15 K
in ethanol	0.00222	0.00302	0.00388	0.00477	0.0058	0.00692	0.00813	0.00961	0.0111	0.0131
in ethylene glycol	0.000321	0.000398	0.000506	0.000615	0.000747	0.000868	0.00102	0.00117	0.00136	0.00157
in methanol	0.00319	0.00442	0.00573	0.0073	0.00915	0.0109	0.0127	0.0149	0.0173	0.0201
in n-propanol	0.000781	0.001	0.00126	0.00152	0.00181	0.00214	0.00252	0.00291	0.00334	0.00383
in water	3.69e-05	4.76e-05	6.03e-05	7.35e-05	8.88e-05	0.000106	0.000123	0.000141	0.000161	0.000182
